Experimental findings from patent US20060018826A1, “Biologic modulations with nanoparticles” (priority 2002, published 2006) are described below.

In the data set the test system is hormone-insensitive PC3 cells. The data set can be described thus: Growth inhibition in prostate carcinoma cells. It is filed as cell-based. The protocol: In these studies, cells were seeded at 5,000 cells per untreated well.

For “GTCCCGACATGTCAGACAGG (antisense GTCCCGACATGTCAGACAGG; chemistry not given here) [SEQ ID NO 1, antisense 20 mer spanning the translation start site of CK2α]”, the “IC50 as % of cisplatin's IC50” value stood at 65%.
